Reference: patent US9409884B2 (Rigel Pharmaceuticals, Inc., priority 2012, dated 2016)
pEC50: −log10 of the molar value.

Biological target: AMPK
Experiment: AMPK activation, enzyme-linked immunosorbent assay
Type: biochemical
Conditions: Table 8, compounds of Table 1
How it was run: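 Read-out: ELISA, used to detect compound-driven activation of AMPK.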

Row | pEC50 | SMILES
1 | 6.30 to 7.00 | N#Cc1ccc(N2CCC(Oc3ccc(C(=O)NC4CCN(Cc5ccncc5)CC4)nc3)CC2)cc1 [Compound 1-1, 5-(1-(4-cyanophenyl)piperidin-4-yloxy)-N-(1-(pyridin-4-ylmethyl)piperidin-4-yl)picolinamide]
2 | > 7.00 | N#Cc1ccc(CN2CCC(NC(=O)c3cc4ccc(OC5CCN(c6ccc(C(F)(F)F)cc6)CC5)cc4o3)CC2)cc1 [Compound 1-90, N-(1-(4-cyanobenzyl)piperidin-4-yl)-6-(1-(4-(trifluoromethyl)phenyl)piperidin-4-yloxy)benzofuran-2-carboxamide]
3 | > 7.00 | O=C(NC1CCN(Cc2ccncc2)CC1)c1ccc(OC2CCN(c3ccc(C(F)(F)F)cc3)CC2)cn1 [Compound 1-3, N-(1-(pyridin-4-ylmethyl)piperidin-4-yl)-5-(1-(4-(trifluoromethyl)phenyl)piperidin-4-yloxy)picolinamide]
4 | < 5.00 | O=C(NC1CCN(Cc2ccc(F)cc2)CC1)c1cc2ccc(OC3CCN(c4ccc(C(F)(F)F)cc4)CC3)cc2o1 [Compound 1-91, N-(1-(4-fluorobenzyl)piperidin-4-yl)-6-(1-(4-(trifluoromethyl)phenyl)piperidin-4-yloxy)benzofuran-2-carboxamide]
5 | > 7.00 | N#Cc1ccccc1CN1CCC(NC(=O)c2cc3ccc(OC4CCN(c5ccc(C(F)(F)F)cc5)CC4)cc3o2)CC1 [Compound 1-98, N-(1-(2-cyanobenzyl)piperidin-4-yl)-6-(1-(4-(trifluoromethyl)phenyl)piperidin-4-yloxy)benzofuran-2-carboxamide]
6 | > 7.00 | O=C(NC1CCN(Cc2cccnc2)CC1)c1cc2ccc(OC3CCN(c4ccc(OC(F)(F)F)cc4)CC3)cc2o1 [Compound 1-95, N-(1-(pyridin-3-ylmethyl)piperidin-4-yl)-6-(1-(4-(trifluoromethoxy)phenyl)piperidin-4-yloxy)benzofuran-2-carboxamide]

Same assay, conditions: Table 9, compounds of Table 2

Row | pEC50 | SMILES
7 | 5.30 to 6.00 | N#Cc1ccc(CN2CCC(NC(=O)c3ccc4[nH]c5c(c4c3)CN(S(=O)(=O)c3ccc(C(F)(F)F)cc3)CC5)CC2)cc1 [Compound 2-24, N-(1-(4-cyanobenzyl)piperidin-4-yl)-2-(4-(trifluoromethyl)phenylsulfonyl)-2,3,4,5-tetrahydro-1H-pyrido[4,3-b]indole-8-carboxamide]
8 | < 4.00 | O=C(NC1CCN(Cc2ccccc2)CC1)c1ccc2[nH]c3c(c2c1)CN(S(=O)(=O)c1ccc(C(F)(F)F)cc1)CC3 [Compound 2-19, N-(1-benzylpiperidin-4-yl)-2-(4-(trifluoromethyl)phenylsulfonyl)-2,3,4,5-tetrahydro-1H-pyrido[4,3-b]indole-8-carboxamide]

Same assay, conditions: Table 12, compounds of Table 5

Row | pEC50 | SMILES
9 | > 6.00 | O=C(NC1CCN(Cc2ccccc2)CC1)c1ccc(OC2CCN(Cc3cccc(C(F)(F)F)c3)CC2)c(F)c1 [Compound 5-59, N-(1-benzylpiperidin-4-yl)-3-fluoro-4-(1-(3-(trifluoromethyl)benzyl)piperidin-4-yloxy)benzamide]
10 | 4.00 to 4.30 | Cn1cncc1CN1CCC(Oc2ccc(C(=O)NC3CCN(Cc4ccccc4)CC3)cc2Cl)CC1 [Compound 5-5, N-(1-benzylpiperidin-4-yl)-3-chloro-4-(1-((1-methyl-1H-imidazol-5-yl)methyl)piperidin-4-yloxy)benzamide]
11 | > 6.00 | O=C(NC1CCN(Cc2ccccc2)CC1)c1ccc(OC2CCN(c3ccc(C(F)(F)F)cc3)CC2)cc1Cl [Compound 5-47, N-(1-benzylpiperidin-4-yl)-2-chloro-4-(1-(4-(trifluoromethyl)phenyl)piperidin-4-yloxy)benzamide]

Same assay, conditions: Table 13, compounds of Table 6

Row | pEC50 | SMILES
12 | 6.00 to 7.00 | N#Cc1ccc(CN2CCC(NC(=O)c3cc4cc(NC(=O)C5CN(c6ccc(C#N)cc6)C5)ccc4o3)CC2)cc1 [Compound 6-74, N-(2-(1-(4-cyanobenzyl)piperidin-4-ylcarbamoyl)benzofuran-5-yl)-1-(4-cyanophenyl)azetidine-3-carboxamide]
13 | 6.00 to 7.00 | N#Cc1ccc(CN2CCC(NC(=O)c3cc4cc(NC(=O)C5CCN(Cc6ccc(C#N)cc6)CC5)ccc4o3)CC2)cc1 [Compound 6-49, l-(4-cyanobenzyl)-N-(2-(l-(4-cyanobenzyl)piperidin-4-ylcarbamoyl)benzofiiran-5-yl)piperidine-4-carbox amide]
14 | 5.00 to 6.00 | COc1ccc(CN2CCC(C(=O)Nc3ccc4oc(C(=O)NC5CCN(Cc6ccc(C#N)cc6)CC5)cc4c3)CC2)cc1 [Compound 6-40, N-(2-(1-(4-cyanobenzyl)piperidin-4-ylcarbamoyl)benzofuran-5-yl)-1-(4-methoxybenzyl)piperidine-4-carboxamide]
15 | > 7.00 | COc1ccc(CN2CCC(NC(=O)c3cc4cc(C(=O)N5CCN(Cc6ccc(S(=O)(=O)N7CCOCC7)cc6)CC5)ccc4o3)CC2)cc1F [Compound 6-163, N-(1-(3-fluoro-4-methoxybenzyl)piperidin-4-yl)-5-(4-(4-(morpholinosulfonyl)benzyl)piperazine-1-arbonyl) benzofuran-2-carboxamide]
16 | > 7.00 | COc1ccc(CN2CCC(NC(=O)c3cc4ccc(C(=O)N5CCN(Cc6ccc(S(C)(=O)=O)cc6)CC5)cc4o3)CC2)cc1 [Compound 6-3, N-(1-(4-methoxybenzyl)piperidin-4-yl)-6-(4-(4-(methylsulfonyl)benzyl)piperazine-1-carbonyl) benzofuran-2-carboxamide]

Same assay, conditions: Table 14, compounds of Table 7

Row | pEC50 | SMILES
17 | > 6.00 | COc1ccc(CN2CCC(NC(=O)c3ccc(C(=O)N4CCC(C(=O)c5ccc(OC)cc5)CC4)nc3)[C@@H](F)C2)cc1 (stereo partly drawn) [Compound 7-21, N-((3,4-trans)-3-fluoro-1-(4-methoxybenzyl)piperidin-4-yl)-6-(4-(4-methoxybenzoyl)piperidine-1-carbonyl)nicotinamide]
18 | > 6.00 | N#Cc1ccc(CN2CCC(NC(=O)c3ccc(N4CCN(c5ccc(C(=O)C6CC6)cc5)CC4)nc3)CC2)cc1 [Compound 7-81, N-(1-(4-cyanobenzyl)piperidin-4-yl)-6-(4-(4-(cyclopropanecarbonyl)phenyl)piperazin-1-yl)nicotinamide]
19 | 5.00 to 6.00 | Cn1cnc2cc(OC3CCN(C(=O)c4ccc(C(=O)NC5CCN(Cc6ccc(C#N)cc6)CC5)cn4)CC3)ccc21 [Compound 7-38, N-(1-(4-cyanobenzyl)piperidin-4-yl)-6-(4-(1-methyl-1H-benzo[d]imidazol-5-yloxy)piperidine-1-carbonyl)nicotinamide]
20 | > 6.00 | COc1ccc(C(=O)C2CCN(C(=O)c3ccc(C(=O)NC4CCN(Cc5ccc(-n6cccn6)cc5)C[C@H]4F)cn3)CC2)cc1 (stereo partly drawn) [Compound 7-41, N-((3,4-trans)-1-(4-(1H-pyrazol-1-yl)benzyl)-3-fluoropiperidin-4-yl)-6-(4-(4-methoxybenzoyl)piperidine-1-carbonyl)nicotinamide]
21 | 5.00 to 6.00 | CS(=O)(=O)c1ccc(OC2CCN(C(=O)c3ccc(C(=O)NC4CCN(Cc5ccc(OC(F)(F)F)cc5)C[C@H]4F)cn3)CC2)cc1 (stereo partly drawn) [Compound 7-49, N-((3,4-trans)-3-fluoro-1-(4-(trifluoromethoxy)benzyl)piperidin-4-yl)-6-(4-(4-(methylsulfonyl)phenoxy)piperidine-1-carbonyl) nicotmamide]
22 | > 6.00 | COc1ccc(C(=O)C2CCN(C(=O)c3ccc(C(=O)NC4CCN(Cc5cccc(C(F)(F)F)c5)C[C@@H]4F)cn3)CC2)cc1 (stereo partly drawn) [Compound 7-34, N-((3,4-trans)-3-fluoro-1-(3-(trifluoromethyl)benzyl)piperidin-4-yl)-6-(4-(4-methoxybenzoyl)piperidine-1-carbonyl)nicotinamide]
